The record followed here is ChEMBL document CHEMBL5154812, “Development of novel urea-based ATM kinase inhibitors with subnanomolar cellular potency and high kinome selectivity” (Eur J Med Chem, 2022).

In brackets after ≈: the same amount, converted by molar mass.

Data set [1] concerns the target T1, Serine-protein kinase ATM (Homo sapiens, UniProt Q13315). Description: Inhibition of ATM (unknown origin) by FRET assay.
The target in data set [2] is T1, Serine-protein kinase ATM. Kind of data set: Inhibition of ATM in human A549 cells assessed as reduction in etoposide-stimulated KAP1 phosphorylation by In-Cell-Western assay. Type of data set: cell-based.
Data set [3] addresses Serine/threonine-protein kinase ATR (Homo sapiens) (UniProt Q13535). Description: Inhibition of ATR (unknown origin) assessed as residual activity at 1 uM relative to control.
The target in data set [4] is Serine/threonine-protein kinase mTOR (Homo sapiens) (UniProt P42345). Kind of data set: Inhibition of mTOR (unknown origin) assessed as residual activity at 1 uM relative to control.
The target of data set [5] is DNA-dependent protein kinase catalytic subunit (Homo sapiens) (UniProt P78527). Kind of data set: Inhibition of DNA-PK (unknown origin) assessed as residual activity at 1 uM relative to control.
For data set [6], the target named is Leucine-rich repeat serine/threonine-protein kinase 2 (Homo sapiens) (UniProt Q5S007). Description: Inhibition of LRRK2 (unknown origin) assessed as residual activity at 1 uM relative to control.
Data set [7] has as its target Phosphatidylinositol 4,5-bisphosphate 3-kinase catalytic subunit alpha isoform (Homo sapiens) (UniProt P42336). Kind of data set: Inhibition of PI3Kalpha (unknown origin) assessed as residual activity at 1 uM relative to control.
The target of data set [8] is Phosphatidylinositol 4,5-bisphosphate 3-kinase catalytic subunit beta isoform (Homo sapiens) (UniProt P42338). Description: Inhibition of PI3Kbeta (unknown origin) assessed as residual activity at 1 uM relative to control.
Data set [9] deals with T2, Phosphatidylinositol 4,5-bisphosphate 3-kinase catalytic subunit delta isoform (Homo sapiens) (UniProt O00329).
T2 sequence (whole entry): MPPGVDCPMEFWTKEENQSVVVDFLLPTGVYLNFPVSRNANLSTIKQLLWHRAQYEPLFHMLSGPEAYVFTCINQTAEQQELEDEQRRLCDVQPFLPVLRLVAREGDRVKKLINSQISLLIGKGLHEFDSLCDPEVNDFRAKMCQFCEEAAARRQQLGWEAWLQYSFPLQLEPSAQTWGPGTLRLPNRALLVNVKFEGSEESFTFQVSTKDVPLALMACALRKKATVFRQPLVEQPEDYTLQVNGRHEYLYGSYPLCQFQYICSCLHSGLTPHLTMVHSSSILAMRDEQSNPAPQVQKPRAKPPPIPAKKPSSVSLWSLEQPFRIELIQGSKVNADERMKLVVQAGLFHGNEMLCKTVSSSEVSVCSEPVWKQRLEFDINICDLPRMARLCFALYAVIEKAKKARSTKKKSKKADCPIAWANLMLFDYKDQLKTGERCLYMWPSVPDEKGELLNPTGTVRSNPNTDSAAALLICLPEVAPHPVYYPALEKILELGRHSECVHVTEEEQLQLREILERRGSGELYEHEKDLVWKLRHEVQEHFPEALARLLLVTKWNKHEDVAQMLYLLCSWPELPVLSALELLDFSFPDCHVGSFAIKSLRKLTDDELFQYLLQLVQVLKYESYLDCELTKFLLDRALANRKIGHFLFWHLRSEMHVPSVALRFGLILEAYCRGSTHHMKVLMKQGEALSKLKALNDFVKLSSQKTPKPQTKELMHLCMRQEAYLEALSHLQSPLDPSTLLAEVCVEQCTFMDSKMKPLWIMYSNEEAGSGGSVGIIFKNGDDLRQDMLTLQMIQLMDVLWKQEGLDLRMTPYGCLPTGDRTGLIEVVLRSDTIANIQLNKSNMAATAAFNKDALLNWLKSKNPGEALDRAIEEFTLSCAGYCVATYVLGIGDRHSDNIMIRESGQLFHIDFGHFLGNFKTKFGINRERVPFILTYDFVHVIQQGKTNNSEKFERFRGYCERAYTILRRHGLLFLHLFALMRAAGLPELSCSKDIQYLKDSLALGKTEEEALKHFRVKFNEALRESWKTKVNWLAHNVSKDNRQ
Kind of data set: Inhibition of PI3Kdelta (unknown origin) assessed as residual activity at 1 uM relative to control.

In data set [10] the target is Phosphatidylinositol 4,5-bisphosphate 3-kinase catalytic subunit gamma isoform (Homo sapiens) (UniProt P48736). Kind of data set: Inhibition of PI3Kgamma (unknown origin) assessed as residual activity at 1 uM relative to control.
Data set [11] is described as follows: Metabolic stability in mouse liver microsomes assessed as parent compound remaining after 120 mins. A general note: Liver microsomes are a subcellular fraction often used to study metabolism.
For the next data set, the species on record is Homo sapiens. Description: Selectivity ratio for inhibition of ATR (unknown origin) to inhibition of ATM (unknown origin).
Data set [12] is described as follows: Thermodynamic solubility of compound in PBS at pH 7.4. To be noted: read-out: Therm_solubility. Type of data set: physicochemical.

T1 sequence (Q13315 whole entry): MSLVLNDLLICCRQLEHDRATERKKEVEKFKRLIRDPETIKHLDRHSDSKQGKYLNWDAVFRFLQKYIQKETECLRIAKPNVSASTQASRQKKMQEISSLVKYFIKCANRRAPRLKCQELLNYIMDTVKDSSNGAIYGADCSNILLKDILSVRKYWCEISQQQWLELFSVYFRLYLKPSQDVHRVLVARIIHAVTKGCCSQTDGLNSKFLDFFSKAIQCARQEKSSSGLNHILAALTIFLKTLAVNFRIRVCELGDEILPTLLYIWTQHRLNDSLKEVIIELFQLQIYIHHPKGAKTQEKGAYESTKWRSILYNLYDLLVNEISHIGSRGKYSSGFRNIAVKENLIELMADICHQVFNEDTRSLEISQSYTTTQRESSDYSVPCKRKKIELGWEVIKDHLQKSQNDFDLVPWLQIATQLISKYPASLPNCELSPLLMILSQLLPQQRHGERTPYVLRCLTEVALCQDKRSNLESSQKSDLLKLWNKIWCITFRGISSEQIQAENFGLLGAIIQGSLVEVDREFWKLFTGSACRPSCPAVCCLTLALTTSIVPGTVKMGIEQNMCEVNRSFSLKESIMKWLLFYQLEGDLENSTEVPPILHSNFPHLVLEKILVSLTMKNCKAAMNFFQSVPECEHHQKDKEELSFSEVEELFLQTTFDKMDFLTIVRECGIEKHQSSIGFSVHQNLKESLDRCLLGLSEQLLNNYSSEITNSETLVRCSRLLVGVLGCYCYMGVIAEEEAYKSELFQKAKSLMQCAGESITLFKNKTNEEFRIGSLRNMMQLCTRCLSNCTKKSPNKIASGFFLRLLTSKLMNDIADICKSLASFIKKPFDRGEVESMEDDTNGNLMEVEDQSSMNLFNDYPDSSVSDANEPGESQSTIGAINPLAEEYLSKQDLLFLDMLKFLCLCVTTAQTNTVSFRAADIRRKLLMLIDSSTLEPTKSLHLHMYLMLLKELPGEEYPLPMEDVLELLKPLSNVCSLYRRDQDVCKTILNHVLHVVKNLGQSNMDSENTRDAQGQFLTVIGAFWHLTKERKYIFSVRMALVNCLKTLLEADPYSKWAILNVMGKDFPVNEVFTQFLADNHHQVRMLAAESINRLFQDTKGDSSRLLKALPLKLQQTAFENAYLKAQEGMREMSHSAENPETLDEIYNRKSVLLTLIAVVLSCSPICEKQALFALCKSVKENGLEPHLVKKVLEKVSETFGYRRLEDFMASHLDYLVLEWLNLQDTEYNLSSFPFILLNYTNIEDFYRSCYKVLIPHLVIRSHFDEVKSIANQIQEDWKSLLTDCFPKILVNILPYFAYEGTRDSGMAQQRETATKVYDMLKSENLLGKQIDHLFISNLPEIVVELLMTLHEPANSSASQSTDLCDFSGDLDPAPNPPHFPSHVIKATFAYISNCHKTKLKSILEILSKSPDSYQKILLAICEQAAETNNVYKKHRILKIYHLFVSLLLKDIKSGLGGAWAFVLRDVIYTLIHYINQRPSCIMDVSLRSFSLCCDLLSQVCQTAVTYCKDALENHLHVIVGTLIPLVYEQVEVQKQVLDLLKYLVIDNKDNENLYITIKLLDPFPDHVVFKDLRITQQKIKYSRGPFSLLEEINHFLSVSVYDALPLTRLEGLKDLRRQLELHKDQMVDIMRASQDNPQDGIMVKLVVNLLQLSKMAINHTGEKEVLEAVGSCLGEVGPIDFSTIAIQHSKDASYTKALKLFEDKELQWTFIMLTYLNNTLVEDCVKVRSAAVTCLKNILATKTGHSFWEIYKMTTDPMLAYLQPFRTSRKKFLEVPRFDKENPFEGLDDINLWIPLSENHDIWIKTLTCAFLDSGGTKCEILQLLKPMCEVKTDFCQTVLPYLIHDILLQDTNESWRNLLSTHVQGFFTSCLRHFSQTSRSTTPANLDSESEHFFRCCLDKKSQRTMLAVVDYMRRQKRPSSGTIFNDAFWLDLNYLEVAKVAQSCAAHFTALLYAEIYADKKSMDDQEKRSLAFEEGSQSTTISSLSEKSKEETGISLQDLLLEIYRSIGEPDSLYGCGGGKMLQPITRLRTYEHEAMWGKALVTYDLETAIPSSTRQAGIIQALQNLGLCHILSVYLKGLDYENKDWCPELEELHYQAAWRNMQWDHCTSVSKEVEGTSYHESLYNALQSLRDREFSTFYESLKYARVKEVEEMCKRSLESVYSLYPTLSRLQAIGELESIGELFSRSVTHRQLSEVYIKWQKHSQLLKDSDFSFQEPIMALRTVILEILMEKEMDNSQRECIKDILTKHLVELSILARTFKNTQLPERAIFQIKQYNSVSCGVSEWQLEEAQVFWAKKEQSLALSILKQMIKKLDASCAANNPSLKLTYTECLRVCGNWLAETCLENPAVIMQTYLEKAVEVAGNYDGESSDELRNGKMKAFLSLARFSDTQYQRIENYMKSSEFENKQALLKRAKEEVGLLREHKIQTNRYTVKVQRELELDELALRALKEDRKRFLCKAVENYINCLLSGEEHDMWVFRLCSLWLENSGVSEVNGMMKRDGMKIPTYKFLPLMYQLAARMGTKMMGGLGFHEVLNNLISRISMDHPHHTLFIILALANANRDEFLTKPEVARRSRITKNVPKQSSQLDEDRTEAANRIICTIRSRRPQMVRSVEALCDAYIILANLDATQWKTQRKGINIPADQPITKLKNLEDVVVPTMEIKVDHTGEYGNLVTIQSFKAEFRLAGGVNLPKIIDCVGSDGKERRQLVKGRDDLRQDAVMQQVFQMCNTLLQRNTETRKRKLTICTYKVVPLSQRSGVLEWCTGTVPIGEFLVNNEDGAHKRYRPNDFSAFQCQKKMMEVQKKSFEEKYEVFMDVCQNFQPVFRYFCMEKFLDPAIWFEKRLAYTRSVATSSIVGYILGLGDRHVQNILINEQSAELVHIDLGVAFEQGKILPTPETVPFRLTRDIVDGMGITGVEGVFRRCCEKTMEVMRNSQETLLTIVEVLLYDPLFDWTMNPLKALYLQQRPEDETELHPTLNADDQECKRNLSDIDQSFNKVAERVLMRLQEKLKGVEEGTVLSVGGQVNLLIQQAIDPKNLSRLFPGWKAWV
Chain of Phosphatidylinositol 4,5-bisphosphate 3-kinase catalytic subunit gamma isoform (Homo sapiens) (P48736 whole entry, looked up, canonical isoform): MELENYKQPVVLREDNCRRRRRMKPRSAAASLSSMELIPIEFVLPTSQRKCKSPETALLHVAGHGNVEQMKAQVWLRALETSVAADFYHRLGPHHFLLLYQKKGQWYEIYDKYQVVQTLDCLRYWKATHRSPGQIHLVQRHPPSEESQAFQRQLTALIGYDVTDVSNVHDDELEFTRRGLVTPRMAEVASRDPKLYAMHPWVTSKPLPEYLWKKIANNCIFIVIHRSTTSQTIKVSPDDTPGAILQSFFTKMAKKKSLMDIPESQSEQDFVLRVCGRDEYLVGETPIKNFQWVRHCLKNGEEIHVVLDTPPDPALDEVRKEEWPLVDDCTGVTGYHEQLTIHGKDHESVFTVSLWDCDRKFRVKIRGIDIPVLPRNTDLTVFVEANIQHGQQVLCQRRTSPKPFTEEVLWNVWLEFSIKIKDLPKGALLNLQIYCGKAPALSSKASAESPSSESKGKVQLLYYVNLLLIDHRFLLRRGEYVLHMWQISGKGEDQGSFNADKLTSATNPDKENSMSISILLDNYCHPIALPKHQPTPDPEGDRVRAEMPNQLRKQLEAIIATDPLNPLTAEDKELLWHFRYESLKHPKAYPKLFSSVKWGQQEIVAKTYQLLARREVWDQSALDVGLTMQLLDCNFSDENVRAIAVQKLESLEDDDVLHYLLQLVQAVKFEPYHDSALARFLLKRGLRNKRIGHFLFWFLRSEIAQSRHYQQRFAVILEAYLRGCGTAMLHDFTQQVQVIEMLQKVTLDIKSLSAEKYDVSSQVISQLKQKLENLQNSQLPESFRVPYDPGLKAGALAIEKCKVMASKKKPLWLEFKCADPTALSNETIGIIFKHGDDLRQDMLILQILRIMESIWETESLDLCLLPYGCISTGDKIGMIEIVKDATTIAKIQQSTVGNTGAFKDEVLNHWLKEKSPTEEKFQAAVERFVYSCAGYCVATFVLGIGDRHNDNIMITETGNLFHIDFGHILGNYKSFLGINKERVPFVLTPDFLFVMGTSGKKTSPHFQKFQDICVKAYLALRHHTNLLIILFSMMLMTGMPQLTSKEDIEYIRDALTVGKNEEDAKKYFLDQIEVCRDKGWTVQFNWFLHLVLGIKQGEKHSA

A word on the IC50: it is the midpoint of a concentration-inhibition curve. In data set [1], `COCCn1c(=O)n(C)c2cnc3ccc(-c4ccc(NC(=O)N5CCN(C)CC5)cc4F)cc3c21` displayed a concentration for half-maximal inhibition (IC50) of 101 nM.
`COCCn1c(=O)n(C)c2cnc3ccc(-c4ccc(NC(=O)NC(C)CN(C)C)cc4)cc3c21` (stereo not given): the IC50 in [1] is under 1 nM.
Still for that read-out and setting: the result for `COCCn1c(=O)n(C)c2cnc3ccc(-c4ccc(NC(=O)NC5CCCN(C)C5)cc4)cc3c21` (stereo not given) reads under 1 nM; that for `COCCn1c(=O)n(C)c2cnc3ccc(-c4ccc(NC(=O)N5CCN(C)CC5)c(F)c4)cc3c21`, 394 nM.
On the same count and under the same terms, the result for `COCCn1c(=O)n(C)c2cnc3ccc(-c4ccc(NC(=O)N5CCC(N)CC5)cc4)cc3c21` reads 16 nM.
Take `COCCn1c(=O)n(C)c2cnc3ccc(-c4ccc(NC(=O)NC5CCN(C)C5)cc4)cc3c21` (stereo not given): in [1], the half-maximal inhibitory concentration (IC50) is under 1 nM.
Still for that read-out and setting: the result for `COCCn1c(=O)n(C)c2cnc3ccc(-c4ccc(NC(=O)NC5CN(C)C5)cc4)cc3c21` reads under 1 nM.
Take `COCCn1c(=O)n(C)c2cnc3ccc(-c4ccc(NC(=O)NCCN(C)C)cc4F)cc3c21`: the IC50 in data set [1] was under 1 nM; in data set [2] it was 0.65 nM.
The molecule `COCCn1c(=O)n(C)c2cnc3ccc(-c4ccc(NC(=O)N5CCN(C)CC5)c(F)c4F)cc3c21` came in with an IC50 in [1] of 212 nM.
As usually defined, the amount remaining is the share of the starting amount still present when the sample was taken. Consider `COCCn1c(=O)n(C)c2cnc3ccc(-c4ccc(NC(=O)NCCN5CC(F)C5)cc4)cc3c21`, for which the half-inhibitory concentration (IC50) in data set [1] was under 1 nM; in data set [2], 0.32 nM. The Activity was 109% in data set [3]; -1% in [4]; -4% in data set [5]; 87% in [6]; -11% in data set [7]; 42% in data set [8]. The Activity was 23% in data set [9] and 34% in data set [10]. Further, in data set [11], the amount remaining at 2 h was 50%. In addition, in the data set listed under Homo sapiens, the Selectivity ratio is over 1000.
In [1], `COCCn1c(=O)n(C)c2cnc3ccc(-c4ccc(NC(=O)N5CCC(NC(=O)OC(C)(C)C)CC5)cc4)cc3c21` came in with an IC50 of 2 nM.
For the molecule `COCCn1c(=O)n(C)c2cnc3ccc(-c4ccc(NC(=O)NCCN(C)C)c(C)c4F)cc3c21`, the 50% inhibitory concentration (IC50) in data set [1] was determined as 37 nM.
Turning to `COCCn1c(=O)n(C)c2cnc3ccc(-c4ccc(NC(=O)N5CCN(C(C)C)CC5)cc4)cc3c21`, the IC50 in data set [1] came out at 158 nM.
The same measure, in the same setting: under `COCCn1c(=O)n(C)c2cnc3ccc(-c4ccc(NC(=O)N5CCN(C)CC5)c(F)c4Cl)cc3c21` stands 885 nM.
Turning to `COCCn1c(=O)n(C)c2cnc3ccc(-c4ccc(NC(=O)NCCN(C)C)c(F)c4)cc3c21`, the values for the IC50 in data set [1] and in data set [2] were under 1 nM and 0.71 nM, respectively. In addition, the Activity in [3] was found to be 104%; in data set [4], 4%; in data set [5] it was 8%; in [6] it was 92%; in data set [7] it was 28%; in data set [8], 87%. Moreover, the Activity in data set [9] stood at 35%; in data set [10], 80%. Besides, the share remaining at 2 h in data set [11] came to 78%. Further, the Selectivity ratio in the data set listed under Homo sapiens was over 1000.
As for `CN(C)CCCOc1ccc(-c2ccc3ncc4c(c3c2)n(C2CCOCC2)c(=O)n4C)cn1`, the solubility thermodynamic in data set [12] amounted to 2970 µM (≈ 1370 µg/mL).
In the case of `COCCn1c(=O)n(C)c2cnc3ccc(-c4ccc(NC(=O)NCCN5CCC5)cc4)cc3c21`, the IC50 in data set [1] was under 1 nM; in [2] it was 0.92 nM.
In [1], `COCCn1c(=O)n(C)c2cnc3ccc(-c4ccc(NC(=O)NC5CCNCC5)cc4)cc3c21` showed an IC50 of under 1 nM.
As to `COCCn1c(=O)n(C)c2cnc3ccc(-c4ccc(NC(=O)NC5CCN(C(=O)OC(C)(C)C)CC5)cc4)cc3c21`, in data set [1], the IC50 was under 1 nM.
With `COCCn1c(=O)n(C)c2cnc3ccc(-c4ccc(NC(=O)NCCN(C)C)cc4)cc3c21`, the results for the IC50 in data set [1] and in data set [2] were under 1 nM and 1.7 nM, respectively. The solubility thermodynamic in [12] was 1570 µM (≈ 726 µg/mL).
The molecule `COCCn1c(=O)n(C)c2cnc3ccc(-c4ccc(NC(=O)N5CCN(C)CC5)c(C)c4F)cc3c21` gave an IC50 in data set [1] of 1580 nM.
In data set [1], `CN(C)CCNC(=O)Nc1ccc(-c2ccc3ncc4c(c3c2)n(C2CCOCC2)c(=O)n4C)cn1` gave an IC50 of under 1 nM. For the same molecule, in data set [12], the solubility thermodynamic was 36 µM (≈ 17.6 µg/mL).
Turning to `COCCn1c(=O)n(C)c2cnc3ccc(-c4ccc(NC(=O)N(C)CCN(C)C)cc4)cc3c21`, the IC50 in data set [1] is under 1 nM; in data set [2] it was 1.33 nM.
The like results for `COCCn1c(=O)n(C)c2cnc3ccc(-c4ccc(NC(=O)NCCN5CC(F)(F)C5)cc4)cc3c21` were, in that order, under 1 nM and 3.31 nM.
The molecule `CN(C)CCNC(=O)Nc1ccc(-c2ccc3ncc4c(c3c2)n(C2CCOCC2)c(=O)n4C)cc1` returned an IC50 in data set [1] of under 1 nM. The solubility thermodynamic in [12] was found to be 39 µM (≈ 19.1 µg/mL).
In turn, `CCN1CCN(C(=O)Nc2ccc(-c3ccc4ncc5c(c4c3)n(CCOC)c(=O)n5C)cc2)CC1` had an IC50 in data set [1] of 159 nM.
With `COCCn1c(=O)n(C)c2cnc3ccc(-c4ccc(NC(=O)N5CCN(C)CC5)cc4)cc3c21`, the IC50 in data set [1] came out at 78 nM.
Regarding `COCCn1c(=O)n(C)c2cnc3ccc(-c4ccc(NC(=O)N5CCC(N(C)C)CC5)cc4)cc3c21`, it took 945 nM to reach half-maximal inhibition in [1] (IC50).
The same measure, in the same setting: the result for `COCCn1c(=O)n(C)c2cnc3ccc(-c4ccc(NC(=O)N5C[C@@H]6C[C@H]5CN6C)cc4)cc3c21` reads 25 nM; that for `COCCn1c(=O)n(C)c2cnc3ccc(-c4ccc(NC(=O)NCCN(C)C)c(F)c4Cl)cc3c21`, 32 nM.
